Source: publication PMC3386561 (Toxicology in Vitro, 2011)
Values after ≈ are worked out from the molar mass of the structure shown. “Also recorded” adds a separate entry of the source.

Legend:
[1] = test system: HepG2-CYP3A4 transfected cells; test: Cell viability; format: cell-based; conditions: for Cytotoxicity (in words): 0-250 μM; for Concentration at which a significant decrease in cell viability begins: p < 0.05 vs 0 μM control
[2] = test system: liver; conditions: cited from earlier work; for Toxicity / liver damage in rats (in words): ref Patel et al., 2011
[3] = Cell viability; format: cell-based; conditions: human
[4] = Cell viability; format: cell-based; conditions: human; for viability: % Cell Viability
[5] = Solubility in HBSS; format: physicochemical
[6] = DCPT hydrolysis in HBSS; format: physicochemical; conditions: 250 μM in HBSS, 37 °C, after 24 hr
[7] = test system: HepG2 wild type cells; test: Cell viability; format: cell-based; conditions: 24 hr
[8] = target: T1, CYP3A4 (Homo sapiens, UniProt P08684); test: Testosterone 6β-hydroxylation in HepG2 wild type cells; conditions: 0-250 μM testosterone, 1 hr
[9] = target: T1, CYP3A4
[10] = target: T1, CYP3A4; test: in vitro

T1 sequence (P08684 whole entry): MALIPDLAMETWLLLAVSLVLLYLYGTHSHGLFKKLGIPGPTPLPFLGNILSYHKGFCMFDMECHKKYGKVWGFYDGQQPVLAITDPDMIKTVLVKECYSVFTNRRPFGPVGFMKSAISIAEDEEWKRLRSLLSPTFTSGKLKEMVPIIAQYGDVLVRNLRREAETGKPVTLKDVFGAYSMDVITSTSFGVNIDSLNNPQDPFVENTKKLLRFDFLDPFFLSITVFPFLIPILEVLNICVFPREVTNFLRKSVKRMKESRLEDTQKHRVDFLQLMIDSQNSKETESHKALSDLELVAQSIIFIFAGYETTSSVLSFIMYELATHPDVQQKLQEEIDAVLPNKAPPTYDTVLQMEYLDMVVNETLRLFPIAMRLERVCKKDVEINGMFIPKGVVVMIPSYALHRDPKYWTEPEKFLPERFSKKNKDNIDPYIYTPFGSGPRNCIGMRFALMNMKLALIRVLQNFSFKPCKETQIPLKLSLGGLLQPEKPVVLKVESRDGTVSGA

In the case of O=C1SCCN1c1cc(Cl)cc(Cl)c1 [2-DCTD, (3,5-dichlorophenyl)-2-thiazolidinone], the Cell viability ([1]; 100 μM, 24 hr) is given as 99.6 ± 4.6%, the Cell viability ([1]; 250 μM, 24 hr) is given as 37.3 ± 7.1% and the “Toxicity / liver damage in rats (in words)” value (from here on “Toxicity / liver damage”) [2] is given as “neither compound produced liver damage”.

With O=C1CSCN1c1cc(Cl)cc(Cl)c1 [4-DCTD, 3-(3,5-dichlorophenyl)-4-thiazolidinone] the CC50 at 24 h [3] was over 250 µM, the “Cytotoxicity (in words)” value ([1]; 24 hr) was “not cytotoxic; also recorded: not toxic” and the CC50 at 24 h ([4]; HepG2-CYP3A4 transfected cells) was over 250 µM. The “Toxicity / liver damage” value [2] was “neither compound produced liver damage”.

With O=C1CSC(=O)N1c1cc(Cl)cc(Cl)c1 [DCPT, 3-(3,5-dichlorophenyl)-2,4-thiazolidinedione] the solubility ([5]; HBSS, aqueous buffer) was 250 µM (≈ 65.5 µg/mL), the DCPT remaining [6] was “less than 50%” and the CC50 at 24 h [3] was 233 ± 19.7 µM. The “Reduction of cell viability” value ([7]; highest concentration (250 μM) DCPT) was “approximately 60%”, the “Reduction of cell viability” value ([1]; 250 μM DCPT, 24 hr) was 80% and the “Concentration at which a significant decrease in cell viability begins” value ([1]; 24 hr) was 100 µM. The “Decrease in cell viability” value ([1]; DEX pretreatment followed by 100 μM DCPT, compared to controls) was “approximately 10%”, the viability ([4]; 100 μM DCPT alone, 24 hr) was 82.6 ± 2.8% and the viability ([4]; 100 μM DEX pretreatment 24 hr, then 100 μM DCPT 24 hr) was 73 ± 1%. The viability ([4]; 250 μM DCPT alone, 24 hr) was 21.3 ± 3.2%, the CC50 at 24 h ([4]; HepG2-CYP3A4 transfected cells) was 160 ± 5.9 µM and the “Hepatotoxicity in rats (in words)” value ([2]; Fischer 344 rats, ref Kennedy et al., 2003, Patel et al., 2008) was “hepatotoxic”.

With O=C(O)CSC(=O)Nc1cc(Cl)cc(Cl)c1 [DCTA, S-(3,5-dichlorophenyl)aminocarbonyl thioglycolic acid] the CC50 at 24 h [3] was 65.3 ± 3.9 µM, the “Concentration at which a significant decrease in cell viability begins” value ([1]; 24 hr) was 50 µM and the CC50 at 24 h ([4]; HepG2-CYP3A4 transfected cells) was 67.3 ± 8.1 µM. The “Toxicity / liver damage” value [2] was “toxic”.

For O=C=Nc1cc(Cl)cc(Cl)c1 [DPI, 3,5-dichlorophenyl isocyanate], the CC50 at 24 h [3] was over 250 µM, the viability at 24 h, 250 μM [3] was at least 50% and the “Concentration at which a significant decrease in cell viability begins” value ([7]; p < 0.05 vs 0 μM control) was 25 µM. For the same molecule, the “Concentration at which a significant decrease in cell viability begins” value ([1]; 24 hr) was 100 µM, the CC50 at 24 h [4] was over 250 µM and the viability at 24 h, 250 μM [4] was at least 50%.

For CC1SC(=O)N(c2cc(Cl)cc(Cl)c2)C1=O (centres unmarked) [DPMT, 3-(3,5-dichlorophenyl)-5-methyl-2,4-thiazolidinedione], the “Solubility in HBSS (in words)” value ([5]; evident at 250 μM) was “issues regarding the solubility”, the CC50 at 24 h [3] was over 250 µM and the “Cytotoxicity (in words)” value ([1]; 24 hr) was “no observed decrease in viability; also recorded: non-toxic”. The CC50 at 24 h ([4]; HepG2-CYP3A4 transfected cells) was over 250 µM and the “Toxicity / liver damage” value [2] was “hepatotoxic”.

Molecule CC(=O)N1CCN(c2ccc(OCC3COC(Cn4ccnc4)(c4ccc(Cl)cc4Cl)O3)cc2)CC1 (centres unmarked) [KCZ, ketoconazole, reference compound] has a viability [4] of 106 ± 4.5%.

With C[C@]12CC[C@H]3[C@@H](CCC4=CC(=O)CC[C@@]43C)[C@@H]1CC[C@@H]2O [Testosterone] the 6β-hydroxylation of testosterone [8] was “no detectable”, the “Vmax of testosterone 6β-hydroxylation” value [9] was 92.7 ± 13.3 pmol/min/mg protein and the Km [10] was 81.1 ± 5.7 µM.
